In US4626525A, “Antibiotics, preparation and use of and intermediates therefor” (Bayer Aktiengesellschaft, priority 1983, dated 1986):
Starred links: 1 amine or outer side, 2 acyl side, 3 side chain; linkers in the order of their positions; H or OH if unused. Non-standard residues stand in square brackets, D forms with d. Residues, ends and D or L forms follow the SMILES beside them. ξ: configuration not given here. X1 = Cn1c(=NC(N)=O)ccn(C2SC(C(O)C(N[*:1])C(=O)[*:2])C(O)C2O)c1=O; Orn(N5-OH,N5-Ac) = CC(=O)N(O)CCC[C@H](N)C(=O)O; ξT = CC(O)C(N)C(=O)O; ξA = CC(N)C(=O)O

Columns and labels:
Assay in all cases: Hole test, inhibiting areola diameter, DST agar
Assay type in all cases: cell-based
[1] = test system: E. coli 14; parameters: unit not given here; conditions: medium DST agar
Excerpt: (§1) Activity against the germs listed below is found in vitro, on the basis of the diameter of the inhibiting areola.

[2] = test system: E. coli T 7; parameters: unit not given here; conditions: medium DST agar
Excerpt: as §1

[3] = test system: Prot. 1017; conditions: 1000 μg/ml, medium DST agar
Excerpt: as §1

[4] = test system: Staph. 133; conditions: 1000 μg/ml, medium DST agar
Excerpt: as §1

Structure (SMILES): CC(=O)N(O)CCC[C@H](NC(=O)[C@H](CCCN(O)C(C)=O)NC(=O)[C@@H](N)CCCN(O)C(C)=O)C(=O)NC(C)C(=O)NC(C(=O)O)C(O)C1SC(n2ccc(=NC(N)=O)n(C)c2=O)C(O)C1O (some centres unmarked) [Compound 9] (H-[Orn(N5-OH,N5-Ac)][Orn(N5-OH,N5-Ac)][Orn(N5-OH,N5-Ac)][ξA][X1]-OH)
- Inhibiting areola diameter E. coli 14 ([1]; 10 μg/ml): 30
- Inhibiting areola diameter E. coli 14 ([1]; 100 μg/ml): 34
- Inhibiting areola diameter E. coli T 7 ([2]; 10 μg/ml): 28
- Inhibiting areola diameter E. coli T 7 ([2]; 100 μg/ml): 34

Structure (SMILES): CC(=O)N(O)CCC[C@H](N)C(=O)NC(C(=O)O)C(O)C1SC(n2ccc(=NC(N)=O)n(C)c2=O)C(O)C1O (some centres unmarked) [Compound 11]
- Inhibiting areola diameter E. coli 14 ([1]; 10 μg/ml): 18
- Inhibiting areola diameter E. coli 14 ([1]; 100 μg/ml): 13
- Inhibiting areola diameter E. coli T 7 ([2]; 10 μg/ml): 13
- Inhibiting areola diameter E. coli T 7 ([2]; 100 μg/ml): 18

Structure (SMILES): CC(=O)N(O)CCC[C@H](NC(=O)[C@H](CCCN(O)C(C)=O)NC(=O)[C@@H](N)CCCN(O)C(C)=O)C(=O)NC(C(=O)O)C(O)C1SC(n2ccc(=NC(N)=O)n(C)c2=O)C(O)C1O (some centres unmarked) [Compound 13]
- Inhibiting areola diameter E. coli 14 ([1]; 1000 μg/ml): 20
- Inhibiting areola diameter E. coli T 7 ([2]; 1000 μg/ml): 19
- Inhibiting areola diameter Prot. 1017 [3]: 20

Structure (SMILES): CC(=O)N(O)CCC[C@H](NC(=O)[C@H](CCCN(O)C(C)=O)NC(=O)[C@@H](N)CCCN(O)C(C)=O)C(=O)NC(C(=O)NC(C(=O)O)C(O)C1SC(n2ccc(=NC(N)=O)n(C)c2=O)C(O)C1O)C(C)O (some centres unmarked) [Compound 20] (H-[Orn(N5-OH,N5-Ac)][Orn(N5-OH,N5-Ac)][Orn(N5-OH,N5-Ac)][ξT][X1]-OH)
- Inhibiting areola diameter E. coli 14 ([1]; 100 μg/ml): 13
- Inhibiting areola diameter E. coli 14 ([1]; 1000 μg/ml): 14
- Inhibiting areola diameter E. coli T 7 ([2]; 100 μg/ml): 14
- Inhibiting areola diameter E. coli T 7 ([2]; 1000 μg/ml): 15
- Inhibiting areola diameter Prot. 1017 [3]: 17
- Inhibiting areola diameter Staph. 133 [4]: 25

Structure (SMILES): CC(=O)N(O)CCC[C@H](NC(=O)[C@H](CCCN(O)C(C)=O)NC(=O)[C@@H](N)CCCN(O)C(C)=O)C(=O)NC(C(=O)O)C(O)C1SC(n2ccc(=O)n(C)c2=O)C(O)C1O (some centres unmarked) [Compound 24]
- Inhibiting areola diameter E. coli 14 ([1]; 1000 μg/ml): 18
- Inhibiting areola diameter E. coli T 7 ([2]; 100 μg/ml): 18
- Inhibiting areola diameter Prot. 1017 [3]: 18
